Data as given in article PMC10957775, “Integrated chemical characterization, metabolite profiling, and pharmacokinetics analysis of Zhijun Tangshen Decoction by UPLC-Q/TOF-MS” (Frontiers in Pharmacology, 2024).
Where two headings read alike, the source gives them in different places.

Experiments:
[1] = parameters: AUC(0→t) / Cmax: unit not given beside the values; conditions: rat, in vivo
DN = test system: DN; parameters: method as in Guo et al., 2017; conditions: in vitro and in vivo; ref Guo et al., 2017; cited from earlier work
in vivo = conditions: male, Sprague-Dawley, rat, po; for half-life: t1/2
Experimental: (§1) Thirty male Sprague–Dawley rats (200 ± 20 g) were purchased from the Nanjing Qinglongshan Experimental Animal Center (Nanjing, China). […] All rats were divided randomly into two groups: ZJTSD-dosed group (n = 27) and control group (n = 3). The ZJTSD-dosed group was given the ZJTSD solution by gavage (i.g.) at a dosage of 1 mL/100 g body weight of rats, and the control group was given 0.9% normal saline at the same dose, twice a day for a week. After the last administration, the blood was collected from the hepatic portal vein at 15 min, 30 min, 1 h, 2 h, 4 h, 6 h, 8 h, 12 h, and 24 h, and 3 rats were taken at each time point.
(§2) The blood samples of rats were centrifuged at 4,000 rpm for 10 min to obtain the serum. The serum sample (1 mL) was processed with a 3-fold volume using methanol for protein precipitation, with epicoprostanol serving as the internal standard (digoxin and clarithromycin). After vortexing for 3 min, the mixture was centrifuged at 18,000 rpm for 10 min. Subsequently, the supernatant was evaporated at 45°C using a vacuum concentrator. After evaporating the solvent, 150 μL of methanol/water (1:1, v/v) was added, vortexed, sonicated, and then centrifuged at 18,000 rpm for 10 min at 4°C. The resulting supernatant was used for further analysis.
(§3) Liquid chromatographic separation was performed using an AB SCIEX LC™ 2.0 system (AB SCIEX, United States) fitted with an Acquity UPLC BEH C18 column (100 mm × 2.1 mm, 1.7 μm; Ireland). The mobile phases in negative and positive ion modes consisted of 0.1% FA aqueous solution (A) and acetonitrile containing 0.1% FA (B). The program of the elution gradient was set as follows: 0∼5 min, 2%∼35 %B; 5∼7 min, 35%∼50%; 7∼10 min, 50%∼70%; 10∼15 min, 70%∼90 %B; 15∼18 min, 90%∼90 %B; 18∼18.5 min, 90%∼2 %B; and 18.5∼20 min, 2%∼2 %B. The injection volume was 3 µL. The flow rate and the column temperature were set at 0.3 mL/min and 40°C, respectively.
(§4) The mass spectrometry analysis was performed on a SCIEX ZenoTOF™ 7600 system (AB SCIEX, United States), which was calibrated in the high-sensitivity mode for every 10 samples. Spectra were acquired in the TOF/MS-IDA-TOF MS/MS mode with the ESI source operating in positive and negative ion modes. MS parameters were set as follows: ionization source, ESI; spray voltage, 5,500 kV/–4,500 kV; collision energy, 40 V/–40 V; declustering potential, 80 V/–80 V; ion source temperature, 550°C; and scan range, 100–1250 m/z. Data acquisition and processing were performed using SCIEX OS 2.2 and PeakView 2.2.
(§5) A semi-quantitative method was adopted based on the correction peak area versus time ([Wang et al., 2011]; [Lin et al., 2019]). The mean serum time-course profile of pharmacokinetics based on the peak area ratio versus time was plotted using Origin 2018. The kinetic analysis of the peak area ratio (×1,000)–time curve was calculated using Phoenix WinNonlin 8.1 (Phoenix, American) software and illustrated.

DN mice = test system: DN mice; parameters: method as in Tian et al., 2018; conditions: ref Tian et al., 2018; cited from earlier work
[2] = Multi-compound pharmacokinetics of ZJTSD in rat serum, semi-quantitative UPLC-Q/TOF-MS (peak area ratio versus time, non-compartmental); conditions: male, Sprague-Dawley, rat, serum (hepatic portal vein blood), po, 1 mL/100 g body weight
Experimental: as §1, §2, §3, §4, §5

Compound	AUC (in words) ([1]; po)	Tmax ([1]; po)	elimination half-life (t1/2) ([1]; po)	pharmacokinetic behavior compared with other prototype compounds and metabolites (in words) ([1]; po)	AUC(0→t) [1]	Cmax [1]	MRT(0→t) [1]	t1/2 [1]	further results
O=C1C[C@@H](c2ccc(O[C@@H]3O[C@H](CO)[C@@H](O)[C@H](O)[C@H]3O)cc2)Oc2cc(O)ccc21 [liquiritin]	–	–	–	–	–	–	–	–	detection in serum / absorbed form ([1]; po): not detected in the serum
Oc1ccccc1O [M94]	greater	≤ 3.5 h	> 7.5 h	better pharmacokinetic behavior	–	–	–	–	–
Cc1cc(O)c2c(c1)C(=O)c1cccc(O)c1C2=O [P13, Chrysophanol]	–	–	–	–	119599.26±21102.35	26478.39±12536.14	–	–	level of exposure in the blood (in words) ([1]; po): higher level of exposure; effect on progression of DN (DN): significantly slowed the progression of DN; MRT last (in vivo): 4.89 ± 0.61 h; Tmax (in vivo): 1.67 ± 2.02 h; half-life (in vivo): 2.42 ± 1.63 h
COc1ccc2c(c1OC)O[C@H]1c3ccc(O)cc3OC[C@@H]21 [P8, Methylnissolin]	–	–	–	–	3.73±0.45	0.77±0.18	6.10±1.53	4.16±2.01	Tmax [1]: 0.42±0.14
O=C1c2ccccc2C(=O)c2ccccc21 [M52]	greater	> 4 h	–	better pharmacokinetic behavior	–	–	–	–	Cmax / peak concentration (in words) ([1]; po): higher peak concentrations
Cc1ccc2c(c1)C(=O)c1cc(OS(=O)(=O)O)ccc1C2=O [M26]	greater	≤ 3.5 h	less than 4 h	better pharmacokinetic behavior	–	–	–	–	–
COc1cccc2c1C(=O)c1c(O)cc(C)cc1C2=O [P20, 8-Methyl chrysophanol]	–	–	–	better pharmacokinetic behavior	49952.22±8257.37	15105.85±4254.91	4.30±0.34	3.38±0.96	Tmax [1]: 0.67±0.29; level of exposure in the blood (in words) ([1]; po): higher level of exposure
Cc1cc(O)c2c(c1)C(=O)c1cc(O)ccc1C2=O [M61]	greater	–	–	–	–	–	–	–	–
CCCCOC(=O)c1ccccc1C(=O)OCCCC [P49, Dibutyl phthalate]	–	–	–	–	542.84±7.58	26.50±1.13	–	–	MRT last (in vivo): 12.1 ± 0.17 h; Tmax (in vivo): 8.08 ± 6.78 h
Cc1cc(O)c2c(c1)C(=O)c1cc(O)cc(O)c1C2=O [P16, Emodin]	–	–	–	–	–	–	–	–	detection in serum / absorbed form ([1]; po): absorbed as prototype compounds; effect on urinary albumin, serum creatinine and blood urea nitrogen (DN mice): improved urinary albumin, serum creatinine, and blood urea nitrogen levels; MRT last [2]: 5.84 ± 0.37 h; Tmax [2]: 2.83 ± 2.02 h; half-life ([2]; t1/2, prototype compounds of ZJTSD absorbed into rat serum, mean±SD, n=3): 8.19 ± 9.39 h
C[N+](C)(C)CCOP(=O)([O-])OCC(O)COCCCCCCCCCCCCCCC=O (stereo not drawn) [M99]	–	≤ 3.5 h	> 7.5 h	better pharmacokinetic behavior	–	–	–	–	–
CCCCCCCCCCCCCCCC(=O)OC[C@@H](O)COP(=O)([O-])OCC[N+](C)(C)C [P50, 1-O-Hexadecanoyl-sn-glycero-3-phosphocholine]	–	–	–	–	149276.86±8351.53	11488.73±739.96	–	–	MRT last (in vivo): 10.2 ± 0.58 h; Tmax (in vivo): 1 ± 0.87 h; half-life (in vivo): 21.9 ± 12.8 h
Cc1cc(O)c2c(c1)C(=O)c1cccc(O)c1C2=O [M56]	greater	≤ 3.5 h	> 7.5 h	better pharmacokinetic behavior	–	–	–	–	Cmax / peak concentration (in words) ([1]; po): higher peak concentrations; time to peak (in words) ([1]; po): faster time to peak
Cc1cc(O)c2c(c1)C(=O)c1cc(C(=O)O)cc(O)c1C2=O [P19, 6-Methyl-rhein]	–	–	–	–	406691.82±79143.95	79253.50±34585.36	5.64±1.31	1.98±0.38	–
CC(=O)CCc1ccc(OS(=O)(=O)O)cc1 [M85]	greater	≤ 3.5 h	less than 4 h	better pharmacokinetic behavior	–	–	–	–	–
COc1cc2c(=O)c(-c3ccc(O)cc3)coc2cc1O[C@@H]1O[C@H](CO)[C@@H](O)[C@H](O)[C@H]1O [P9, Glycitin]	–	–	–	–	1.99±0.28	0.80±0.39	4.70±1.01	3.56±1.89	Tmax [1]: 0.92±0.95
CC(CO)C1=C(O)c2ccc3c(c2C(=O)C1=O)CCCC3(C)C (stereo not drawn) [P31, Tanshinone V]	–	–	–	–	269.12±44.99	44.36±4.60	5.85±0.84	7.21	Tmax [1]: 5.33±2.31
Cc1cc(O[C@@H]2O[C@H](CO)[C@@H](O)[C@H](O)[C@H]2O)cc2oc(CC(C)O)cc(=O)c12 (stereo partly drawn) [P7, 2-(2-Hydroxypropyl)-5-methyl-7-hydroxychromone-7-O-β-D-glucoside]	–	–	–	–	1.05±0.08	0.23±0.06	6.76±1.16	7.53±1.65	Tmax [1]: 0.92±0.95
O=C(O)c1cc2c(cc1O)C(=O)c1ccccc1C2=O [M28]	greater	≤ 3.5 h	less than 4 h	better pharmacokinetic behavior	–	–	–	–	–
O=C1C[C@@H](c2ccc(O)cc2)Oc2cc(O)ccc21 [M18]	–	–	–	–	–	–	–	–	detection in serum / absorbed form ([1]; po): detected in vivo
